Measurements from US8754242B2, “Herbicides” (Syngenta Crop Protection LLC, priority 2007, dated 2014).

Assays:
Type in all cases: in vivo
[1] = test system: Echinochloa crus-galli (ECHCG); assay: Test Example 1 post-emergence herbicidal activity; details: 360 h, rate 125 g/ha, evaluated 15 days later, read-out: Post-emergence activity ECHCG (100=total damage to plant; 0=no damage to plant)
Method in brief: (§1)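 Pots sown in standard soil were sprayed 1 day (pre-emergence) or 10 days (post-emergence) after sowing with an aqueous spray from an acetone/Emulsogen EL/N-methylpyrrolidone-based formulation. Visual damage was scored 20 days (pre) or 15 days (post) later in the greenhouse, 0 = none to 100 = total.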

Avena fatua (AVEFA) [2] = assay: Test Example 1 post-emergence herbicidal activity; details: 360 h, rate 125 g/ha, evaluated 15 days later, read-out: Post-emergence activity AVEFA (100=total damage to plant; 0=no damage to plant)
Method in brief: as §1

Setaria faberi (SETFA) [3] = assay: Test Example 1 post-emergence herbicidal activity; details: 360 h, rate 125 g/ha, evaluated 15 days later, read-out: Post-emergence activity SETFA (100=total damage to plant; 0=no damage to plant)
Method in brief: as §1

[4] = test system: Alopecurus myosuroides (ALOMY); assay: Test Example 1 post-emergence herbicidal activity; details: 360 h, rate 125 g/ha, evaluated 15 days later, read-out: Post-emergence activity ALOMY (100=total damage to plant; 0=no damage to plant)
Method in brief: as §1

[5] = test system: Digitaria sanguinalis (DIGSA); assay: Test Example 1 post-emergence herbicidal activity; details: rate 125 g/ha, evaluated 15 days later; for pest or weed control at 125 g/ha: 360 h, read-out: Post-emergence activity DIGSA (100=total damage to plant; 0=no damage to plant)
Method in brief: as §1

Lolium perenne (LOLPE) [6] = assay: Test Example 1 post-emergence herbicidal activity; details: 360 h, rate 125 g/ha, evaluated 15 days later, read-out: Post-emergence activity LOLPE (100=total damage to plant; 0=no damage to plant)
Method in brief: as §1

[7] = test system: Echinochloa crus-galli (ECHCG); assay: Test Example 1 pre-emergence herbicidal activity; details: Echinochloa crus-galli, 480 h, rate 250 g/ha, evaluated 20 days later, read-out: Pre-emergence activity ECHCG (100=total damage to plant; 0=no damage to plant)
Method in brief: as §1

Avena fatua (AVEFA) [8] = assay: Test Example 1 pre-emergence herbicidal activity; details: rate 250 g/ha, evaluated 20 days later; for pest or weed control at 250 g/ha: Avena fatua, 480 h, read-out: Pre-emergence activity AVEFA (100=total damage to plant; 0=no damage to plant)
Method in brief: as §1

Setaria faberi (SETFA) [9] = assay: Test Example 1 pre-emergence herbicidal activity; details: Setaria faberi, 480 h, rate 250 g/ha, evaluated 20 days later, read-out: Pre-emergence activity SETFA (100=total damage to plant; 0=no damage to plant)
Method in brief: as §1

[10] = test system: Alopecurus myosuroides (ALOMY); assay: Test Example 1 pre-emergence herbicidal activity; details: Alopecurus myosuroides, 480 h, rate 250 g/ha, evaluated 20 days later, read-out: Pre-emergence activity ALOMY (100=total damage to plant; 0=no damage to plant)
Method in brief: as §1

[11] = test system: Digitaria sanguinalis (DIGSA); assay: Test Example 1 pre-emergence herbicidal activity; details: Digitaria sanguinalis, 480 h, rate 250 g/ha, evaluated 20 days later, read-out: Pre-emergence activity DIGSA (100=total damage to plant; 0=no damage to plant)
Method in brief: as §1

Lolium perenne (LOLPE) [12] = assay: Test Example 1 pre-emergence herbicidal activity; details: Lolium perenne, 480 h, rate 250 g/ha, evaluated 20 days later, read-out: Pre-emergence activity LOLPE (100=total damage to plant; 0=no damage to plant)
Method in brief: as §1

SMILES | pest or weed control at 125 g/ha [1] | pest or weed control at 125 g/ha (Avena fatua (AVEFA) [2]) | pest or weed control at 125 g/ha (Setaria faberi (SETFA) [3]) | pest or weed control at 125 g/ha [4] | pest or weed control at 125 g/ha [5] | pest or weed control at 125 g/ha (Lolium perenne (LOLPE) [6]) | pest or weed control at 250 g/ha [7] | pest or weed control at 250 g/ha (Avena fatua (AVEFA) [8]) | pest or weed control at 250 g/ha (Setaria faberi (SETFA) [9]) | pest or weed control at 250 g/ha [10] | pest or weed control at 250 g/ha [11] | pest or weed control at 250 g/ha (Lolium perenne (LOLPE) [12]) | Post-emergence activity DIGSA (100=total damage to plant; 0=no damage to plant) [5] | Pre-emergence activity AVEFA (100=total damage to plant; 0=no damage to plant) (Avena fatua (AVEFA) [8])
CCc1cc(C)cc(CC)c1C1=C(O)[C@@H]2[C@@H]3O[C@@H](C[C@H]3c3ccc([N+](=O)[O-])cc3)[C@@H]2C1=O [Example T158] | 100% | 90% | 100% | 90% | 100% | 80% | 50% | 50% | 70% | 60% | 70% | 70% | – | –
CCc1cc(C)cc(CC)c1C1=C(O)[C@H]2[C@@H](C1=O)[C@@H]1CC[C@@]2(COCC#N)O1 [Example T27] | 100% | 90% | 100% | 100% | 100% | 80% | 100% | 70% | 100% | 70% | 90% | 70% | – | –
CCc1cc(C)cc(CC)c1C1=C(O)[C@@H]2[C@@H]3O[C@@H](C[C@H]3c3ccc(Cl)cc3C)[C@@H]2C1=O (racemic) [Example T165] | 100% | 30% | 90% | 80% | 70% | 80% | 80% | 20% | 70% | 70% | 50% | 80% | – | –
Cc1cc(C)c(C2=C(O)[C@@H]3[C@@H]4O[C@@H](C[C@H]4c4ccc(F)nc4)[C@@H]3C2=O)c(C)c1 [Example T129] | 100% | 80% | 100% | 80% | 80% | 70% | 100% | 90% | 100% | 100% | 90% | 90% | – | –
CCc1cc(C)cc(CC)c1C1=C(O)[C@H]2[C@@H](C1=O)[C@@H]1CC[C@H]2O1 [Example T10] | 80% | 70% | 80% | 70% | – | 80% | 90% | – | 80% | 80% | 80% | 100% | 50 | 70
Cc1cc(C)c(C2=C(O)[C@@H]3[C@@H]4O[C@@H](C[C@H]4c4cnccn4)[C@@H]3C2=O)c(C)c1 [Example T187] | 70% | 10% | 60% | 70% | 60% | 40% | 10% | 20% | 40% | 10% | 20% | 60% | – | –
Cc1cc(C)c(C2=C(O)[C@@H]3[C@@H]4O[C@@H](C[C@H]4c4ccc(OC(F)(F)F)cc4)[C@@H]3C2=O)c(C)c1 [Example T91] | 100% | 90% | 100% | 90% | 100% | 50% | 50% | 50% | 50% | 20% | 70% | 20% | – | –
